According to ChEMBL document CHEMBL3407389, “1,3,4-Thiadiazoles: a potent multi targeted pharmacological scaffold” (Eur J Med Chem, 2015):
Values after ≈ are worked out from the molar mass of the structure shown. Values belong to the molecule of their own block, whether it stands above or below them.

Key:
[1] = molecular target: T1, Polyunsaturated fatty acid 5-lipoxygenase (Homo sapiens, UniProt P09917); assay: Inhibition of 5-LO (unknown origin)
T1 sequence (P09917 whole entry): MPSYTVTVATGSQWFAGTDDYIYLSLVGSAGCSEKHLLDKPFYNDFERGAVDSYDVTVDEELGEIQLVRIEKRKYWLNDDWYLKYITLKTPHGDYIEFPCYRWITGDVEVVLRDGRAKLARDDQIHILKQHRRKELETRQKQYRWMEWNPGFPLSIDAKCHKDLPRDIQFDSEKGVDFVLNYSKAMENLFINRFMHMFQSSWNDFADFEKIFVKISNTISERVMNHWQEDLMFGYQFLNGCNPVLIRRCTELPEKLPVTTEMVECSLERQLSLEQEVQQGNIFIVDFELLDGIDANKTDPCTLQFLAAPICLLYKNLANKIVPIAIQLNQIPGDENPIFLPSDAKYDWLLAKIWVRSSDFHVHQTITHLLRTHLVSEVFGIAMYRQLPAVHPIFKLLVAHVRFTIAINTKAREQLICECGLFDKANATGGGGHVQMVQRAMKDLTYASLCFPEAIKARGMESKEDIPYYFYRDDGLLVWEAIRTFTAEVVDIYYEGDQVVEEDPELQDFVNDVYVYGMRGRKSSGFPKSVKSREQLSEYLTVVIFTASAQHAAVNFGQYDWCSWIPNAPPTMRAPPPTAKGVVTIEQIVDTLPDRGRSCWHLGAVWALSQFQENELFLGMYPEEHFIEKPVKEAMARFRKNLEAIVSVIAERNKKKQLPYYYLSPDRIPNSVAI

[2] = molecular target: Cyclooxygenase (Homo sapiens, UniProt P35354+P23219); assay: Inhibition of CO (unknown origin)
[3] = species on record: Mus musculus; assay: Anticonvulsant activity in mouse assessed as protection against shock-induced seizures by MES test; assay type: functional
[4] = species on record: Mus musculus; assay: Anticonvulsant activity in mouse by MES test; assay type: functional
[5] = test system: Helicobacter pylori; assay: Antimicrobial activity against Helicobacter pylori at 1 ug/disc; assay type: functional; conditions: read-out: IZ
[6] = test system: Helicobacter pylori; assay: Potency index, ratio of IZ for compound to IZ for metronidazole against Helicobacter pylori by disc diffusion method; assay type: functional
[7] = test system: Helicobacter pylori; assay: Antimicrobial activity against Helicobacter pylori by disc diffusion method; assay type: functional
[8] = molecular target: Carbonic anhydrase 2 (Homo sapiens, UniProt P00918); assay: Inhibition of human carbonic anhydrase 2
[9] = molecular target: Carbonic anhydrase 1 (Homo sapiens, UniProt P00915); assay: Inhibition of human carbonic anhydrase 1
[10] = molecular target: Carbonic anhydrase 9 (Homo sapiens, UniProt Q16790); assay: Inhibition of human carbonic anhydrase 9
[11] = molecular target: Carbonic anhydrase (Bos taurus, UniProt P00921+Q95323+P18915+Q3SZX4); assay: Inhibition of bovine carbonic anhydrase 5; assay type: protein assay
[12] = test system: Human immunodeficiency virus 2; assay: Antiviral activity against HIV2 ROD by MTT assay; assay type: functional, organism-based; conditions: Human immunodeficiency virus 2, ISOLATE ROD
[13] = test system: Human immunodeficiency virus 1; assay: Antiviral activity against HIV1 3B by MTT assay; assay type: functional, organism-based; conditions: Human immunodeficiency virus 1, 3B
[14] = test system: Human immunodeficiency virus 2; assay: Antiviral activity against HIV2 infected in human MT4 cells; assay type: functional, organism-based; conditions: Human immunodeficiency virus 2, MT4
[15] = test system: Human immunodeficiency virus 1; assay: Antiviral activity against HIV1 infected in human MT4 cells; assay type: functional, organism-based; conditions: Human immunodeficiency virus 1, MT4

Carbonic anhydrase 1, sequence (P00915 whole entry): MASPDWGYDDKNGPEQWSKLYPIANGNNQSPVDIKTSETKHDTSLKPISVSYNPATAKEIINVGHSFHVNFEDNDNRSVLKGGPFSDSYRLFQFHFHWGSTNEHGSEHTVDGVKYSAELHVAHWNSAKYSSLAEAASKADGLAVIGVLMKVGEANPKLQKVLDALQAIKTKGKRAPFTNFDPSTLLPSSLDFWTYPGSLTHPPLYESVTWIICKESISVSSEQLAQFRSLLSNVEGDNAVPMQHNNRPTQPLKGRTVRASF

IC50 [1]: 2800 nM
IC50 [2]: 800 nM
SMILES: CC(C)(C)c1cc(-c2n[nH]c(=S)s2)cc(C(C)(C)C)c1O.C[N+](C)(C)CCO

SMILES: Clc1ccc(Nc2nnc(-c3ccncc3)s2)cc1
Activity [3]: 100%

SMILES: CNc1nnc(-c2ccccc2-c2ccccc2)s1
ED50 [4]: 18 mg/kg

SMILES: Cn1c([N+](=O)[O-])cnc1-c1nnc(S)s1
zone of inhibition at 1 µg/disc [5]: 7.7 mm

SMILES: CC1CN(c2nnc(-c3ncc([N+](=O)[O-])n3C)s2)CC(C)N1 (centres undefined)
fold change (FC) [6]: 5
inhibition zone (IZ) [7]: 30.9 mm

Ki [8]: 0.2 nM
Ki [9]: 3 nM
Ki [10]: 6 nM
Ki [11]: 2 nM
SMILES: NS(=O)(=O)c1nnc(NS(=O)(=O)c2ccc(-[n+]3ccccc3)cc2)s1

SMILES: O=C(COc1ccc2ccccc2c1)NCc1nnc(Nc2ccccc2)s1
EC50 [12]: 0.961 µg/mL (≈ 2.46 µM)
EC50 [13]: 0.961 µg/mL (≈ 2.46 µM)

EC50 [14]: 1.97 µg/mL (≈ 9.11 µM)
EC50 [15]: 1.97 µg/mL (≈ 9.11 µM)
SMILES: c1ccc(C2=Nn3cnnc3SC2)cc1

EC50 [14]: 9.9 µg/mL (≈ 25.1 µM)
EC50 [15]: 23.9 µg/mL (≈ 60.5 µM)
SMILES: Cc1ccc(S(=O)(=O)NCc2nnc(Nc3ccc(Cl)cc3)s2)cc1

SMILES: Cc1ncc([N+](=O)[O-])n1CCO [METRONIDAZOLE]
zone of inhibition at 1 µg/disc [5]: 16.3 mm
inhibition zone (IZ) [7]: 6 mm
